Laboratory results from patent publication US20240150377A1, “MODULATORS OF CYSTIC FIBROSIS TRANSMEMBRANE CONDUCTANCE REGULATOR” (VERTEX PHARMACEUTICALS INCORPORATED, priority 2020, published 2024).
Like-named read-outs stand apart in the source and are kept apart here.

Tests used:
F508del = biological target: T1, F508del (Homo sapiens, UniProt P13569, DEL508-508); assay: 3T3 assay: membrane potential optical assay for F508del correction; type: cell-based; settings: F508del NIH 3T3 cells; for Emax: NIH3T3, compared to lumacaftor in combination with acutely added 300 nM Ivacaftor, read-out: 3T3 Max Activity; for EC50: 18-24 hours at 37° C., forskolin, acutely added 300 nM Ivacaftor
T1 construct: expressed in transfected cells
From the text: 1. Membrane Potential Optical Methods for Assaying F508del Modulation Properties of Compounds
The assay utilizes fluorescent voltage sensing dyes to measure changes in membrane potential using a fluorescent plate reader (e.g., FLIPR III, Molecular Devices, Inc.) as a readout for increase in functional F508del in NIH 3T3 cells. The driving force for the response is the creation of a chloride ion gradient in conjunction with channel activation by a single liquid addition step after the cells have previously been treated with compounds and subsequently loaded with a voltage sensing dye.
2. Identification of Corrector Compounds
To identify correctors of F508del, a single-addition HTS assay format was developed. This HTS assay utilizes fluorescent voltage sensing dyes to measure changes in membrane potential on the FLIPR III as a measurement for increase in gating (conductance) of F508del in F508del NIH 3T3 cells. The F508del NIH 3T3 cell cultures were incubated with the corrector compounds at a range of concentrations for 18-24 hours at 37° C., and subsequently loaded with a redistribution dye. The driving force for the response is a Cl^− ion gradient in conjunction with channel activation with forskolin in a single liquid addition step using a fluorescent plate reader such as FLIPR III.
Bath Solution #1: (in mM) NaCl 160, KCl 4.5, CaCl2) 2, MgCl2 1, HEPES 10, pH 7.4 with NaOH.
Chloride-free bath solution: Chloride salts in Bath Solution #1 (above) are substituted with gluconate salts.
NIH3T3 mouse fibroblasts stably expressing F508del are used for optical measurements of membrane potential. The cells are maintained at 37° C. in 5% CO2 and 90% humidity in Dulbecco's modified Eagle's medium supplemented with 2 mM glutamine, 10% fetal bovine serum, 1× NEAA, b-ME, 1×pen/strep, and 25 mM HEPES in 175 cm^2 culture flasks. For all optical assays, the cells were seeded at ˜20,000/well in 384-well Matrigel-coated plates. For the correction assays, the cells are cultured at 37° C. with and without compounds for 16-24 hours.

CFTR = CFTR (Homo sapiens, UniProt P13569); assay: Membrane potential dye, Enteroid Assay A; type: cell-based; settings: for Ent. A Max Activity: chloride transport as % of triple combination control (Enteroid Assay A); for EC50: human enteroid cells, 18-24 hours, acute 10 μM forskolin and 300 nM ivacaftor, read-out: Ent. A EC50
In short: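 Human intestinal enteroids incubated 18-24 h at 37 °C with test compound, then loaded with 20 μM methyl oxonol (with CaCC inhibitors). Chloride transport triggered in chloride-free buffer with 10 μM forskolin, 100 μM IBMX, 300 nM Compound III; fluorescence read 15 min, expressed as % of a triple-combination corrector/potentiator control.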

CFTR, sequence (P13569 with tags, fused parts or gaps DEL508-508): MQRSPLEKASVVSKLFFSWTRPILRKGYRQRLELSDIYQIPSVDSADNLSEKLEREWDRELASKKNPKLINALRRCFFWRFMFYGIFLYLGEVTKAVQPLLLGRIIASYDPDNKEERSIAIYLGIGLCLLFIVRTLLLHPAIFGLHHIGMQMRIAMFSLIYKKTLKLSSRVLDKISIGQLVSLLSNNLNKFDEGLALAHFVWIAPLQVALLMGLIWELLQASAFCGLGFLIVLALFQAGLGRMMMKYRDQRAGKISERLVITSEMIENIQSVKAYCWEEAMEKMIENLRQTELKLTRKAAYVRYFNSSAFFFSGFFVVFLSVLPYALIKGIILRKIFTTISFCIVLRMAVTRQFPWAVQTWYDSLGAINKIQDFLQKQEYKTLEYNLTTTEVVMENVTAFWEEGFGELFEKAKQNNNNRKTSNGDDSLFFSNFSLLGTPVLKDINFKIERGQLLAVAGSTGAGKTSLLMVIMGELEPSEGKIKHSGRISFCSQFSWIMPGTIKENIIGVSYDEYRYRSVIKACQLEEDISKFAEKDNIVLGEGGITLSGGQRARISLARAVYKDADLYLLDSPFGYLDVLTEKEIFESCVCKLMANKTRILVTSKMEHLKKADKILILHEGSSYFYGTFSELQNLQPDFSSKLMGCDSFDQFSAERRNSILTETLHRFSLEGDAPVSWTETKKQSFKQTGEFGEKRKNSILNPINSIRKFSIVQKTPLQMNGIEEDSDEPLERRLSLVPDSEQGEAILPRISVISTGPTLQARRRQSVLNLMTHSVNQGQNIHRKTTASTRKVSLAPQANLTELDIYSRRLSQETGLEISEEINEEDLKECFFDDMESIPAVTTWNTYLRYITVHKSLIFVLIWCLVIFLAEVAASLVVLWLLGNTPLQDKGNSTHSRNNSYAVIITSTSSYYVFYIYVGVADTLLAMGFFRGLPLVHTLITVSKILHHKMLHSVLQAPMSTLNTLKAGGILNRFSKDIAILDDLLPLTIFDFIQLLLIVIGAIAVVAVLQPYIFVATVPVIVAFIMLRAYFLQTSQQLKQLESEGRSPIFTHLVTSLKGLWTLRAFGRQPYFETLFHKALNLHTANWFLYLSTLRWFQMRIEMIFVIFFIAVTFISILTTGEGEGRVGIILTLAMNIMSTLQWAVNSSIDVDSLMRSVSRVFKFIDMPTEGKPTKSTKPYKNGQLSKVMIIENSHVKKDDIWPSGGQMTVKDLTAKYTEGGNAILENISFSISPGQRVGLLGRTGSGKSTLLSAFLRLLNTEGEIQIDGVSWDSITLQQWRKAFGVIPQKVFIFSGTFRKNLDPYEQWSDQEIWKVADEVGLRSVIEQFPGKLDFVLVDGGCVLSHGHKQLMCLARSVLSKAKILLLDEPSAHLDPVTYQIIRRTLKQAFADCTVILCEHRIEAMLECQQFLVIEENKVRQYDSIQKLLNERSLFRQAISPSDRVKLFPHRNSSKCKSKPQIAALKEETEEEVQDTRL
T1 sequence (P13569 with tags, fused parts or gaps DEL508-508): as above

Cc1cccc(C)c1-c1cc2nc(n1)NS(=O)(=O)c1cccc(c1)C(=O)N(C)[C@H](CC(C)C)C(c1ccc(C(C)(C)C)cn1)O2 (stereo in doubt) [Compound 1, (10S,11R)-10-(5-tert-butyl-2-pyridyl)-6-(2,6-dimethylphenyl)-11-isobutyl-12-methyl-2,2-dioxo-9-oxa-2λ^6-thia-3,5,12,19-tetrazatricyclo[12.3.1.14,8]nonadeca-1(18),4(19),5,7,14,16-hexaen-13-one]
Emax (F508del; Table 6): > 60%
EC50 (F508del; Table 6): < 1000 nM
Ent. A Max Activity (CFTR; Table 6): +++ (+++ is >60%)
EC50 (CFTR; Table 6): < 1000 nM

Cc1cccc(C)c1-c1cc2nc(n1)NS(=O)(=O)c1cccc(c1)C(=O)N(Cc1ccccc1)CC(c1ccccc1)O2 (stereo in doubt) [Compound 18, (10R)-12-Benzyl-6-(2,6-dimethylphenyl)-2,2-dioxo-10-phenyl-9-oxa-2λ^6-thia-3,5,12,19-tetrazatricyclo[12.3.1.14,8]nonadeca-1(18),4(19),5,7,14,16-hexaen-13-one]
Emax (F508del; Table 6): > 60%
EC50 (F508del; Table 6): < 1000 nM
Ent. A Max Activity (CFTR; Table 6): +++ (+++ is >60%)
EC50 (CFTR; Table 6): < 1000 nM

Cc1cccc(C)c1-c1cc2nc(n1)NS(=O)(=O)c1cccc(c1)C(=O)N(Cc1ccccc1)CC(Cc1ccccc1)O2 (stereo in doubt) [Compound 106, (10R)-10,12-dibenzyl-6-(2,6-dimethylphenyl)-9-oxa-2λ^6-thia-3,5,12,19-tetraazatricyclo[12.3.1.14,8]nonadeca-1(17),4(19),5,7,14(18),15-hexaene-2,2,13-trione]
Emax (F508del; Table 6): > 60%
EC50 (F508del; Table 6): < 1000 nM
Ent. A Max Activity (CFTR; Table 6): +++ (+++ is >60%)
EC50 (CFTR; Table 6): < 1000 nM

Cc1cccc(C)c1-c1cc2nc(n1)NS(=O)(=O)c1cccc(c1)CN(Cc1ccnnc1)[C@H](CC(C)C)CO2 [Compound 47, (11R)-6-(2,6-dimethylphenyl)-11-(2-methylpropyl)-12-[(pyridazin-4-yl)methyl]-9-oxa-2λ^6-thia-3,5,12,19-tetraazatricyclo[12.3.1.14,8]nonadeca-1(17),4,6,8(19),14(18),15-hexaene-2,2-dione]
Emax (F508del; Table 7): > 60%
EC50 (F508del; Table 7): < 1000 nM
Ent. A Max Activity (CFTR; Table 7): +++ (+++ is >60%)
EC50 (CFTR; Table 7): < 1000 nM

Cc1cccc(C)c1-c1cc2nc(n1)NS(=O)(=O)c1cccc(c1)C(=O)N(C)[C@H](CC(C)C)CO2 [Compound 71, (11R)-6-(2,6-Dimethylphenyl)-12-methyl-11-(2-methylpropyl)-9-oxa-2λ^6-thia-3,5,12,19-tetraazatricyclo[12.3.1.14,8]nonadeca-1(18),4(19),5,7,14,16-hexaene-2,2,13-trione]
Emax (F508del; Table 6): > 60%
EC50 (F508del; Table 6): < 1000 nM
Ent. A Max Activity (CFTR; Table 6): +++ (+++ is >60%)
EC50 (CFTR; Table 6): < 1000 nM

Cc1cccc(C)c1-c1cc2nc(n1)NS(=O)(=O)c1cccc(c1)C(=O)N(Cc1ccc(C#N)cc1)[C@H](CC(C)C)CO2 [Compound 78, 4-[[(11R)-6-(2,6-Dimethylphenyl)-11-isobutyl-2,2,13-trioxo-9-oxa-2λ^6-thia-3,5,12,19-tetrazatricyclo[12.3.1.14,8]nonadeca-1(18),4(19),5,7,14,16-hexaen-12-yl]methyl]benzonitrile]
Emax (F508del; Table 6): > 60%
EC50 (F508del; Table 6): < 1000 nM
Ent. A Max Activity (CFTR; Table 6): +++ (+++ is >60%)
EC50 (CFTR; Table 6): < 1000 nM

Cc1cccc(C)c1-c1cc2nc(n1)NS(=O)(=O)c1cccc(c1)C(=O)N(CCC1CCOCC1)[C@H](CC(C)C)CO2 [Compound 79, (11R)-6-(2,6-Dimethylphenyl)-11-isobutyl-2,2-dioxo-12-(2-tetrahydropyran-4-ylethyl)-9-oxa-2λ^6-thia-3,5,12,19-tetrazatricyclo[12.3.1.14,8]nonadeca-1(18),4(19),5,7,14,16-hexaen-13-one]
Emax (F508del; Table 6): > 60%
EC50 (F508del; Table 6): < 1000 nM
Ent. A Max Activity (CFTR; Table 6): +++ (+++ is >60%)
EC50 (CFTR; Table 6): < 1000 nM

Cc1cccc(C)c1-c1cc2nc(n1)NS(=O)(=O)c1cccc(c1)C(=O)N(CCO)[C@H](CC(C)C)CO2 [Compound 80, (11R)-6-(2,6-Dimethylphenyl)-12-(2-hydroxyethyl)-11-isobutyl-2,2-dioxo-9-oxa-2λ^6-thia-3,5,12,19-tetrazatricyclo[12.3.1.14,8]nonadeca-1(18),4(19),5,7,14,16-hexaen-13-one]
Emax (F508del; Table 6): > 60%
EC50 (F508del; Table 6): < 1000 nM
Ent. A Max Activity (CFTR; Table 6): +++ (+++ is >60%)
EC50 (CFTR; Table 6): < 1000 nM

Cc1cccc(C)c1-c1cc2nc(n1)NS(=O)(=O)c1cccc(c1)C(=O)N(CCC1CCN(C(C)C)CC1)[C@H](CC(C)C)CO2 [Compound 85, (11R)-6-(2,6-Dimethylphenyl)-11-isobutyl-12-[2-(1-isopropyl-4-piperidyl)ethyl]-2,2-dioxo-9-oxa-2λ^6-thia-3,5,12,19-tetrazatricyclo[12.3.1.14,8]nonadeca-1(18),4(19),5,7,14,16-hexaen-13-one]
Emax (F508del; Table 7): > 60%
EC50 (F508del; Table 7): < 1000 nM
Ent. A Max Activity (CFTR; Table 7): +++ (+++ is >60%)
EC50 (CFTR; Table 7): < 1000 nM

Cc1cccc(C)c1-c1cc2nc(n1)NS(=O)(=O)c1cccc(c1)C(=O)N(C)[C@H](C)[C@H](c1ccc(C(C)(C)C)cc1)O2 [Compound 338]
Emax (F508del; Table 6): > 60%
EC50 (F508del; Table 6): < 1000 nM
Ent. A Max Activity (CFTR; Table 6): + (+ is <30%)

Cc1cccc(C)c1-c1cc2nc(n1)NS(=O)(=O)c1cccc(c1)C(=O)N(C)[C@H](C)[C@@H](c1ccc(C(C)(C)C)cc1)O2 [Compound 339]
Emax (F508del; Table 6): > 60%
EC50 (F508del; Table 6): < 1000 nM
Ent. A Max Activity (CFTR; Table 6): ++ (++ is 30-60%)
EC50 (CFTR; Table 6): < 1000 nM

COc1ccc(CN2C(=O)c3cccc(c3)S(=O)(=O)Nc3nc(cc(-c4c(C)cccc4C)n3)OC[C@H]2CC(C)C)cc1 [Compound 347]
Emax (F508del; Table 6): > 60%
EC50 (F508del; Table 6): < 1000 nM
Ent. A Max Activity (CFTR; Table 6): +++ (+++ is >60%)
EC50 (CFTR; Table 6): < 1000 nM

Cc1cccc(C)c1-c1cc2nc(n1)NS(=O)(=O)c1cccc(c1)C(=O)N(CCCC1CCOCC1)[C@H](CC(C)C)CO2 [Compound 353]
Emax (F508del; Table 6): > 60%
EC50 (F508del; Table 6): < 1000 nM
Ent. A Max Activity (CFTR; Table 6): +++ (+++ is >60%)
EC50 (CFTR; Table 6): < 1000 nM

CCCCCCCCN1C(=O)c2cccc(c2)S(=O)(=O)Nc2nc(cc(-c3c(C)cccc3C)n2)OC[C@H]1CC(C)C [Compound 361]
Emax (F508del; Table 6): > 60%
EC50 (F508del; Table 6): < 1000 nM
Ent. A Max Activity (CFTR; Table 6): +++ (+++ is >60%)
EC50 (CFTR; Table 6): < 1000 nM

CCCCCN1C(=O)c2cccc(c2)S(=O)(=O)Nc2nc(cc(-c3c(C)cccc3C)n2)OC[C@H]1CC(C)C [Compound 362]
Emax (F508del; Table 6): > 60%
EC50 (F508del; Table 6): < 1000 nM
Ent. A Max Activity (CFTR; Table 6): +++ (+++ is >60%)
EC50 (CFTR; Table 6): < 1000 nM

Cc1cccc(C)c1-c1cc2nc(n1)NS(=O)(=O)c1cccc(c1)C(=O)N(CCC1CCN(C)CC1)[C@H](CC(C)C)CO2 [Compound 418]
Emax (F508del; Table 6): > 60%
EC50 (F508del; Table 6): < 1000 nM
Ent. A Max Activity (CFTR; Table 6): +++ (+++ is >60%)
EC50 (CFTR; Table 6): < 1000 nM

CNC(=O)c1ccc(CN2C(=O)c3cccc(c3)S(=O)(=O)Nc3nc(cc(-c4c(C)cccc4C)n3)OC[C@H]2CC(C)C)cc1 [Compound 419]
Emax (F508del; Table 6): > 60%
EC50 (F508del; Table 6): < 1000 nM
Ent. A Max Activity (CFTR; Table 6): +++ (+++ is >60%)
EC50 (CFTR; Table 6): < 1000 nM

Cc1cccc(C)c1-c1cc2nc(n1)NS(=O)(=O)c1cccc(c1)NC(=O)CN(C(=O)OC(C)(C)C)CCO2 [Compound 516]
Emax (F508del; Table 6): > 60%
EC50 (F508del; Table 6): < 1000 nM
Ent. A Max Activity (CFTR; Table 6): +++ (+++ is >60%)
EC50 (CFTR; Table 6): 3000 to 30000 nM

Cc1cccc(C)c1-c1cc2nc(n1)NS(=O)(=O)c1cccc(c1)C(=O)N(C)C[C@H](c1ccc(C3CC3)cc1)O2 [Compound 669]
Emax (F508del; Table 7): > 60%
EC50 (F508del; Table 7): < 1000 nM
Ent. A Max Activity (CFTR; Table 7): ++ (++ is 30-60%)
EC50 (CFTR; Table 7): < 1000 nM
